Results from publication PMC6644236, “Cytotoxicity of Crude Extract and Isolated Constituents of the Dichrostachys cinerea Bark towards Multifactorial Drug-Resistant Cancer Cells” (Evidence-based Complementary and Alternative Medicine : eCAM, 2019).

Legend:
CCRF-CEM cells = experiment: Cell cycle analysis by flow cytometry (PI); format: cell-based; conditions: 24 h
Experimental: Aliquots of 1×10^6 CCRF-CEM cells were treated with the studied samples (DCB and compound 1), the reference drug (doxorubicin), or the solvent control (DMSO) at various concentrations. […] The BD Accuri C6 Flow Cytometer (BD Biosciences, Heidelberg, Germany) was used to measure the propidium iodide (PI) fluorescence of individual nuclei. Assays were repeated at least three times and in triplicate.

[1] = system: MDA-MB-231-BCRP clone 23 cells; experiment: Resazurin reduction cytotoxicity assay; conditions: for Degree of resistance: IC50 in MDA-MB-231-BCRP divided by IC50 in MDA-MB-231-pcDNA; for IC50: MDA-MB-231/BCRP, 72 h
Text: (§1) Drug-sensitive and drug-resistant cancer cell lines of previously reported origin were used in this study. These included drug-sensitive CCRF-CEM leukemia cells and its multidrug-resistant P-glycoprotein-overexpressing subline CEM/ADR5000 cells [14–16], MDA-MB-231-pcDNA breast cancer cells and their resistant subline MDA-MB-231-BCRP clone 23 cells [17], HCT116 p53^+/+colon cancer cells and their knockout clone HCT116 p53^−/− cells, and U87.MG glioblastoma cells and their resistant subline U87.MGΔEGFR cells [18, 19]. Normal AML12 hepatocytes were used and compared with HepG2 hepatocarcinoma cells [18, 19].
(§2) The Infinite M2000 Pro™ plate reader (Tecan, Crailsheim, Germany) with excitation wavelength of 544 nm and an emission wavelength of 590 nm was used to read the fluorescence after 72 h incubation. IC50 values earlier defined [13] were calculated from a calibration curve by linear regression using Microsoft Excel [24]. The degree of resistance (D.R.) was determined as the IC50 value of the resistant cell line versus that of its sensitive congeners; meanwhile, the selectivity index (S.I.) was the IC50 value in normal AML12 hepatocytes versus that in HepG2 hepatocarcinoma.

U87.MGΔEGFR cells = experiment: Resazurin reduction cytotoxicity assay; format: cell-based; conditions: for Degree of resistance: IC50 in U87MG.ΔEGFR divided by IC50 in U87MG; for IC50: U87MG.ΔEGFR, 72 h incubation
Text: as §1, §2

Normal AML12 hepatocytes = experiment: Resazurin reduction cytotoxicity assay; format: cell-based; conditions: for IC50: Mus musculus, normal AML12 hepatocytes, 72 h incubation
Text: as §1, §2

[2] = system: HepG2 hepatocarcinoma cells; experiment: Resazurin reduction cytotoxicity assay; format: cell-based; conditions: Homo sapiens; HepG2, 72 h incubation
Experimental: as §2

[3] = system: U87.MG glioblastoma cells; experiment: Resazurin reduction cytotoxicity assay; format: cell-based; conditions: Homo sapiens, U-87 MG; U87MG, 72 h incubation
[4] = system: CEM/ADR5000 cells (multidrug-resistant P-glycoprotein-overexpressing subline); experiment: Resazurin reduction cytotoxicity assay; format: cell-based; conditions: for Degree of resistance: IC50 in CEM/ADR5000 divided by IC50 in CCRF-CEM; for IC50: Homo sapiens, CEM/ADR5000, 72 h incubation
Text: as §1, §2

CCRF-CEM leukemia cells = experiment: Resazurin reduction cytotoxicity assay; format: cell-based; conditions: Homo sapiens, 72 h incubation
Experimental: as §2

[5] = system: MDA-MB-231-pcDNA breast cancer cells; experiment: Resazurin reduction cytotoxicity assay; format: cell-based; conditions: 72 h incubation
HCT116 p53-/- cells = experiment: Resazurin reduction cytotoxicity assay; format: cell-based; conditions: for IC50: Homo sapiens, HCT-116, HCT116(p53-/-), 72 h incubation; for Degree of resistance: IC50 in HCT116 (p53-/-) divided by IC50 in HCT116 (p53+/+)
Text: as §1, §2

[6] = system: HCT116 p53+/+ colon cancer cells; experiment: Resazurin reduction cytotoxicity assay; format: cell-based; conditions: 72 h incubation
[7] = system: 9 tested cancer cell lines; experiment: Resazurin reduction cytotoxicity assay, whole panel; format: cell-based; conditions: 72 h, all tested cancer cell lines, 72 h incubation; read-out: IC50 values over the tested cancer cell lines
Text: These included drug-sensitive CCRF-CEM leukemia cells and its multidrug-resistant P-glycoprotein-overexpressing subline CEM/ADR5000 cells [14–16], MDA-MB-231-pcDNA breast cancer cells and their resistant subline MDA-MB-231-BCRP clone 23 cells [17], HCT116 p53^+/+colon cancer cells and their knockout clone HCT116 p53^−/− cells, and U87.MG glioblastoma cells and their resistant subline U87.MGΔEGFR cells [18, 19]. Normal AML12 hepatocytes were used and compared with HepG2 hepatocarcinoma cells [18, 19].
as §2

| Structure (SMILES) | Cell cycle arrest (phase) (CCRF-CEM cells) | Degree of resistance [1] | IC50 [1] [µM] | Degree of resistance (U87.MGΔEGFR cells) | IC50 (U87.MGΔEGFR cells) [µM] | IC50 (Normal AML12 hepatocytes) [µM] | IC50 [2] [µM] | IC50 [3] [µM] | Degree of resistance [4] | IC50 (CCRF-CEM leukemia cells) [µM] | IC50 [5] [µM] | IC50 (HCT116 p53-/- cells) [µM] | Degree of resistance (HCT116 p53-/- cells) | IC50 ([6]; Homo sapiens, HCT-116, 72 h) [µM] | IC50 [4] [µM] | IC50 [7] [µM] | IC50 [6] [µM] | Selectivity index (Normal AML12 hepatocytes; IC50 in normal AML12 hepatocytes divided by IC50 in HepG2) |
| --- | --- | --- | --- | --- | --- | --- | --- | --- | --- | --- | --- | --- | --- | --- | --- | --- | --- | --- |
| COc1cccc2c1C(=O)c1c(O)c3c(c(O)c1C2=O)C[C@@](O)(C(=O)CO)C[C@@H]3O[C@H]1C[C@H](N)[C@H](O)[C@H](C)O1 [Doxorubicin, doxorubicin, reference compound] | between S and G2/M | 6.14 | 0.79 ± 0.08 | 3.79 | 0.98 ± 0.07 | 52.9 ± 4.09 | 4.56 ± 0.48 | 0.26 ± 0.03 | 6,683.00 | 0.02 | 0.13 ± 0.01 | 1.78 ± 0.08 | 3.73 | – | – | – | – | – |
| CCCCCCCCCCCCCCCCCCCCCCCCCC(=O)OCC(O)CO (stereo not shown) [Compound 2, glyceryl-1-hexacosanoate] | – | – | > 100 | – | > 100 | > 100 | > 100 | > 100 | – | > 100 | > 100 | > 100 | – | > 100 | > 100 | > 100 | – | – |
| O=c1cc(-c2ccc(O)cc2)oc2ccc(O)cc12 [Compound 4, 6-hydroxy-2-(4-hydroxyphenyl)-4H-chromen-4-one] | – | 0.88 | 40.5 ± 3.9 | 1.02 | 44.6 ± 2.56 | 53.9 ± 11.2 | 34 ± 2.95 | 43.9 ± 8.19 | 2.05 | 18.9 ± 1.54 | 45.8 ± 4.76 | 48.6 ± 3.82 | 1.00 | 88.9 | 38.8 ± 2.13 | – | 48.9 ± 5.35 | 1.59 |
